Data: ChEMBL document CHEMBL4052645, “Discovery of potent and efficacious pyrrolopyridazines as dual JAK1/3 inhibitors” (Bioorg Med Chem Lett, 2017)

How the values were obtained:
[1] = molecular target: Dual specificity mitogen-activated protein kinase kinase 5 (Homo sapiens) (UniProt Q13163); assay: Inhibition of human MAP2K5 (L98 to P448 residues) expressed in mammalian expression system assessed as residual activity at 50 nM by KINOMEscan assay relative to control
[2] = molecular target: Mitogen-activated protein kinase 15 (Homo sapiens) (UniProt Q8TD08); assay: Inhibition of wild-type human partial length ERK7 (M1 to P437 residues) expressed in bacterial expression system assessed as residual activity at 50 nM by Kinomescan method relative to control
[3] = molecular target: Myosin-IIIb (Homo sapiens) (UniProt Q8WXR4); assay: Inhibition of wild-type human partial length MYO3B (M1 to D357 residues) expressed in bacterial expression system assessed as residual activity at 50 nM by Kinomescan method relative to control
[4] = molecular target: Serine/threonine-protein kinase ULK3 (Homo sapiens) (UniProt Q6PHR2); assay: Inhibition of wild-type human partial length ULK3 (M1 to Q290 residues) expressed in mammalian expression system assessed as residual activity at 50 nM by Kinomescan method relative to control
[5] = molecular target: Serine/threonine-protein kinase 4 (Homo sapiens) (UniProt Q13043); assay: Inhibition of wild-type human full length MST1 (M1 to F487 residues) expressed in bacterial expression system assessed as residual activity at 50 nM by Kinomescan method relative to control
[6] = molecular target: Activin receptor type-2B (Homo sapiens) (UniProt Q13705); assay: Inhibition of wild-type human ACTR2B (H169 to D504 residues) expressed in bacterial expression system assessed as residual activity at 50 nM by Kinomescan method relative to control
[7] = molecular target: Serine/threonine-protein kinase 25 (Homo sapiens) (UniProt O00506); assay: Inhibition of wild-type human partial length YSK1 (V14 to H295 residues) expressed in bacterial expression system assessed as residual activity at 50 nM by Kinomescan method relative to control
[8] = molecular target: Casein kinase I isoform gamma-3 (Homo sapiens) (UniProt Q9Y6M4); assay: Inhibition of wild-type human full length CK1G3 (M1 to K447 residues) expressed in bacterial expression system assessed as residual activity at 50 nM by Kinomescan method relative to control
[9] = molecular target: Dual specificity mitogen-activated protein kinase kinase 6 (Homo sapiens) (UniProt P52564); assay: Inhibition of wild-type human partial length MAP2K6 (K36 to D334 residues) expressed in bacterial expression system assessed as residual activity at 50 nM by Kinomescan method relative to control
[10] = molecular target: Mitogen-activated protein kinase 10 (Homo sapiens) (UniProt P53779); assay: Inhibition of wild-type human partial length JNK3 (V28 to Q422 residues) expressed in mammalian expression system assessed as residual activity at 50 nM by Kinomescan method relative to control
[11] = molecular target: SRSF protein kinase 1 (Homo sapiens) (UniProt Q96SB4); assay: Inhibition of wild-type human full length SRPK1 (M1 to S655 residues) expressed in bacterial expression system assessed as residual activity at 50 nM by Kinomescan method relative to control
[12] = molecular target: Serine/threonine-protein kinase PLK2 (Homo sapiens) (UniProt Q9NYY3); assay: Inhibition of wild-type human partial length PLK2 (H58 to F354 residues) expressed in mammalian expression system assessed as residual activity at 50 nM by Kinomescan method relative to control
[13] = molecular target: Ephrin type-B receptor 1 (Homo sapiens) (UniProt P54762); assay: Inhibition of wild-type human partial length EPHB1 (P589 to T911 residues) expressed in bacterial expression system assessed as residual activity at 50 nM by Kinomescan method relative to control
[14] = molecular target: Serine/threonine-protein kinase 17A (Homo sapiens) (UniProt Q9UEE5); assay: Inhibition of wild-type human partial length DRAK1 (R32 to E363 residues) expressed in bacterial expression system assessed as residual activity at 50 nM by Kinomescan method relative to control
[15] = molecular target: Peripheral plasma membrane protein CASK (Homo sapiens) (UniProt O14936); assay: Inhibition of wild-type human partial length CASK (M1 to H315 residues) expressed in mammalian expression system assessed as residual activity at 50 nM by Kinomescan method relative to control
[16] = molecular target: Hormonally up-regulated neu tumor-associated kinase (Homo sapiens) (UniProt P57058); assay: Inhibition of wild-type human partial length HUNK (A31 to K354 residues) expressed in bacterial expression system assessed as residual activity at 50 nM by Kinomescan method relative to control
[17] = molecular target: Serine/threonine-protein kinase/endoribonuclease IRE1 (Homo sapiens) (UniProt O75460); assay: Inhibition of wild-type human partial length IRE1 (S551 to E852 residues) expressed in mammalian expression system assessed as residual activity at 50 nM by Kinomescan method relative to control
[18] = molecular target: NT-3 growth factor receptor (Homo sapiens) (UniProt Q16288); assay: Inhibition of wild-type human partial length TRKC (Q531 to G825 residues) expressed in mammalian expression system assessed as residual activity at 50 nM by Kinomescan method relative to control
[19] = molecular target: Myosin light chain kinase, smooth muscle (Homo sapiens) (UniProt Q15746); assay: Inhibition of wild-type human full length SMMLCK (M854 to E1845 residues) expressed in mammalian expression system assessed as residual activity at 50 nM by Kinomescan method relative to control
[20] = molecular target: Ephrin type-B receptor 6 (Homo sapiens) (UniProt O15197); assay: Inhibition of wild-type human partial length EPHB6 (Q634 to P948 residues) expressed in mammalian expression system assessed as residual activity at 50 nM by Kinomescan method relative to control
[21] = molecular target: Casein kinase I isoform gamma-2 (Homo sapiens) (UniProt P78368); assay: Inhibition of wild-type human full length CK1G2 (M1 to K415 residues) expressed in bacterial expression system assessed as residual activity at 50 nM by Kinomescan method relative to control
[22] = molecular target: TRAF2 and NCK-interacting protein kinase (Homo sapiens) (UniProt Q9UKE5); assay: Inhibition of wild-type human partial length TNIK (D4 to K311 residues) expressed in bacterial expression system assessed as residual activity at 50 nM by Kinomescan method relative to control
[23] = molecular target: Tyrosine-protein kinase JAK1 (Homo sapiens, UniProt P23458); assay: Inhibition of human JAK1 (V856 to K1154 residues) expressed in bacterial expression system assessed as residual activity at 50 nM by KINOMEscan assay relative to control
[24] = molecular target: Vascular endothelial growth factor receptor 1 (Homo sapiens) (UniProt P17948); assay: Inhibition of wild-type human partial length FLT1 (R781 to F1239 residues) expressed in bacterial expression system assessed as residual activity at 50 nM by Kinomescan method relative to control
[25] = molecular target: SNF-related serine/threonine-protein kinase (Homo sapiens) (UniProt Q9NRH2); assay: Inhibition of wild-type human partial length SNRK (M1 to E339 residues) expressed in mammalian expression system assessed as residual activity at 50 nM by Kinomescan method relative to control

Serine/threonine-protein kinase 4 (Homo sapiens), sequence (Q13043 whole entry, the tested form may be a part): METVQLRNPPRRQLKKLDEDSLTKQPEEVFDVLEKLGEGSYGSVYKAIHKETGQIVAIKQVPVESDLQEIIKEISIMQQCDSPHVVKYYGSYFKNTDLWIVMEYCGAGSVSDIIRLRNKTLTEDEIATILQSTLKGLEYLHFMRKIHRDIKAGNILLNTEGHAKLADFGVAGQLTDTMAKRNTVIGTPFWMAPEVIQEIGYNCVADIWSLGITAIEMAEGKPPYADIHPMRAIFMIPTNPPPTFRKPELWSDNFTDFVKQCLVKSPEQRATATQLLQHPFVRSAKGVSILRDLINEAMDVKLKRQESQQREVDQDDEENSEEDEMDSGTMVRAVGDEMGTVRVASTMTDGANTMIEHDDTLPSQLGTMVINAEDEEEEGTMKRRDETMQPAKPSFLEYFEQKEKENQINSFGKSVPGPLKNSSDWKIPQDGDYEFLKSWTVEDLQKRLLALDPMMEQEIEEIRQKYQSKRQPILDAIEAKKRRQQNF
Vascular endothelial growth factor receptor 1 (Homo sapiens), sequence (P17948 whole entry, the tested form may be a part): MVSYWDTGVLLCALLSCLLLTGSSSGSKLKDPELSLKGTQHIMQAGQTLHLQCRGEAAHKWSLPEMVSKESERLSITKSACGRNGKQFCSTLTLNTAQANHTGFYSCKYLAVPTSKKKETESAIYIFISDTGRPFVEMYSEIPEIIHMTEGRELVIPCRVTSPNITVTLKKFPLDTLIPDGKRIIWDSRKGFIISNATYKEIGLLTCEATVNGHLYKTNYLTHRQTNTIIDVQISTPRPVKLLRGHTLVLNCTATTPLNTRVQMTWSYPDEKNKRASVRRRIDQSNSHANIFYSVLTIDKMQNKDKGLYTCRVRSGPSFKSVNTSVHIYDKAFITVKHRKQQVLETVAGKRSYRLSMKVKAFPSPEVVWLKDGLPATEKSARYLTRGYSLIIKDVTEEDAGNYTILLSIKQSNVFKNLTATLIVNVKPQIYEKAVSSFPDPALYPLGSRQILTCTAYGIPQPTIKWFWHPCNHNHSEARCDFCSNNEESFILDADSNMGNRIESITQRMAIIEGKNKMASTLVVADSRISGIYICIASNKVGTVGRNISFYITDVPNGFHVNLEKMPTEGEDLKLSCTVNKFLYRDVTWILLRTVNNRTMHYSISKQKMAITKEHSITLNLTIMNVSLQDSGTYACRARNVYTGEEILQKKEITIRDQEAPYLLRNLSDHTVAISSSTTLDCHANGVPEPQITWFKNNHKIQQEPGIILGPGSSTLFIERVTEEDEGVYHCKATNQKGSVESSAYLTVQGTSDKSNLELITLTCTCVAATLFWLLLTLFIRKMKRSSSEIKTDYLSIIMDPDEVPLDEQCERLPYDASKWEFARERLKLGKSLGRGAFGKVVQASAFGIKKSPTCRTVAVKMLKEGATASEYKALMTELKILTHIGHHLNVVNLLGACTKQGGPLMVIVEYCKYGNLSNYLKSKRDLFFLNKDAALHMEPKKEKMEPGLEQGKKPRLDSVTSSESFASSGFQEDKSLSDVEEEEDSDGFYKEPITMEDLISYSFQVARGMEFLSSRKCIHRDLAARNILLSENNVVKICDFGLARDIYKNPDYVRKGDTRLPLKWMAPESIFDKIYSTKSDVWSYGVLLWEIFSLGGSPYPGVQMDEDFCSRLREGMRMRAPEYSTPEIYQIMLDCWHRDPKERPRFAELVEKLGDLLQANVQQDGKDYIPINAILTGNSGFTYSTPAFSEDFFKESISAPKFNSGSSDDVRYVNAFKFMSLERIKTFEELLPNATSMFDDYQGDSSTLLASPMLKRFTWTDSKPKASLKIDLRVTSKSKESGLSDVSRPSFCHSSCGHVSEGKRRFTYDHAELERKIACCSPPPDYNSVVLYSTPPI
Activin receptor type-2B (Homo sapiens), sequence (Q13705 whole entry, the tested form may be a part): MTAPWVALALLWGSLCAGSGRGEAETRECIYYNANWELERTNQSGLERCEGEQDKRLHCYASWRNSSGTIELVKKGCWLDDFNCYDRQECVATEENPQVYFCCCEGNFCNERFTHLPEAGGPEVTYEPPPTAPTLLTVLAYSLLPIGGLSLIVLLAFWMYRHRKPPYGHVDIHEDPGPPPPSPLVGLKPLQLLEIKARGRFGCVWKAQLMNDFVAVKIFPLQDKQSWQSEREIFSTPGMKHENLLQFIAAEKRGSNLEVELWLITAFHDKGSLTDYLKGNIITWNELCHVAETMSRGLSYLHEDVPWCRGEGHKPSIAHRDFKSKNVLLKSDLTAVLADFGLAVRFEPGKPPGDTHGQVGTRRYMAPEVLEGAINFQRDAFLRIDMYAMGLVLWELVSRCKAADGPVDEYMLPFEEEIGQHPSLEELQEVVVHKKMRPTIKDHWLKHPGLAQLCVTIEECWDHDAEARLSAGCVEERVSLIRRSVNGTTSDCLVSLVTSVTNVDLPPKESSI
Casein kinase I isoform gamma-2 (Homo sapiens), sequence (P78368 whole entry, looked up, the tested form may be a part, canonical isoform): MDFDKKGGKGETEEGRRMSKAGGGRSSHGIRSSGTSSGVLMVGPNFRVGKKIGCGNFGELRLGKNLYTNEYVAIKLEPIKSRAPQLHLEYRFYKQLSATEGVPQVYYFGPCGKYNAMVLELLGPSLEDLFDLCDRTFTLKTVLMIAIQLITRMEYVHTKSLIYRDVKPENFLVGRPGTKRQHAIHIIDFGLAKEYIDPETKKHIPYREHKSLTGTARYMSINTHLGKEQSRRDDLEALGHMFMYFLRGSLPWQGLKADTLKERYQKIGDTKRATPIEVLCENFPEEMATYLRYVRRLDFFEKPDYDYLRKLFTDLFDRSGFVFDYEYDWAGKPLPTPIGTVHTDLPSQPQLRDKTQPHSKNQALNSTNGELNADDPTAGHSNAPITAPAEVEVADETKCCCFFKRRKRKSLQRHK
Ephrin type-B receptor 6 (Homo sapiens), sequence (O15197 whole entry, the tested form may be a part, canonical isoform): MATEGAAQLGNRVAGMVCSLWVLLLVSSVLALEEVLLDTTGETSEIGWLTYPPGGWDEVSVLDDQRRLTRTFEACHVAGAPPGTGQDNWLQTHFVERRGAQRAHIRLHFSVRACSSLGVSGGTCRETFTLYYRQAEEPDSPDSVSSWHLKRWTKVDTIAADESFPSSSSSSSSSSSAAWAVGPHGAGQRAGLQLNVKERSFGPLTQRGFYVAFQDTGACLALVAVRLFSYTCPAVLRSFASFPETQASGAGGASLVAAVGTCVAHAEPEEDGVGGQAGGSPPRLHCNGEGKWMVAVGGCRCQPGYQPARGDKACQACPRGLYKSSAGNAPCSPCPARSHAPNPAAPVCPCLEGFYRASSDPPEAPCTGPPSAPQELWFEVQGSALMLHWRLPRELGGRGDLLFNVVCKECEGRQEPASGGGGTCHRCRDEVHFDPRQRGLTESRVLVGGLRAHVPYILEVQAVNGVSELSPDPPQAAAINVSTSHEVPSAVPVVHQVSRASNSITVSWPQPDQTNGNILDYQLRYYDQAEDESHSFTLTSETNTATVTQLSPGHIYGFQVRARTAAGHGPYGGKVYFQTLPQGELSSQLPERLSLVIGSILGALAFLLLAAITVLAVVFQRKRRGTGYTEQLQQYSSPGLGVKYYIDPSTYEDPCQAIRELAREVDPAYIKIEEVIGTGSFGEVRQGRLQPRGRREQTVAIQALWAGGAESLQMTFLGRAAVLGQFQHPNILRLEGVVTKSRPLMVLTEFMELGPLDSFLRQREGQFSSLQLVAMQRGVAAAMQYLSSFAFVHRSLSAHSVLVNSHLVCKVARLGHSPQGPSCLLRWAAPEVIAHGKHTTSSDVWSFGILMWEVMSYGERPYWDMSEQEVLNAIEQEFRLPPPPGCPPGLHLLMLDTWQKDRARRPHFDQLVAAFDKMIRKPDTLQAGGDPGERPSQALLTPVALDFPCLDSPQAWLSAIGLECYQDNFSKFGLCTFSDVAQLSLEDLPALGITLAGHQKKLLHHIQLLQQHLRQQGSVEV
SRSF protein kinase 1 (Homo sapiens), sequence (Q96SB4 whole entry, the tested form may be a part): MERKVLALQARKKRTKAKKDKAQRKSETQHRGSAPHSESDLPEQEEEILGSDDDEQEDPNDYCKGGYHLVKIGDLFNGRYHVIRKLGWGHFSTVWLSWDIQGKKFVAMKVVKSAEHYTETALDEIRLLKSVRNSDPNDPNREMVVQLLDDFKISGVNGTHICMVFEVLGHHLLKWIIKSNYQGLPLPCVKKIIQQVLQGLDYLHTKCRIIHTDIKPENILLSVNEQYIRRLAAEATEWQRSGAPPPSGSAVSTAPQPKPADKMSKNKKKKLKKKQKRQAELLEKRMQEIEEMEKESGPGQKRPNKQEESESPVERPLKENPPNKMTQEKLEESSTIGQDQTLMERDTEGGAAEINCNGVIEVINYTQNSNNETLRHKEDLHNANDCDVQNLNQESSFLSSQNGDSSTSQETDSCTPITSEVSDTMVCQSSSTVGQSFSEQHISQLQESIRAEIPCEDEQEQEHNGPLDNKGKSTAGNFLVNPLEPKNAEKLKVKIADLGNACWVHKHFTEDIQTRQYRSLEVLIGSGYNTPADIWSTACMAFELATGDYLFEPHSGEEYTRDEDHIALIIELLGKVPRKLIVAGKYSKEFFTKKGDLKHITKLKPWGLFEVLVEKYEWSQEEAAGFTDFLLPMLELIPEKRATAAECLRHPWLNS
Serine/threonine-protein kinase 25 (Homo sapiens), sequence (O00506 whole entry, looked up, the tested form may be a part, canonical isoform): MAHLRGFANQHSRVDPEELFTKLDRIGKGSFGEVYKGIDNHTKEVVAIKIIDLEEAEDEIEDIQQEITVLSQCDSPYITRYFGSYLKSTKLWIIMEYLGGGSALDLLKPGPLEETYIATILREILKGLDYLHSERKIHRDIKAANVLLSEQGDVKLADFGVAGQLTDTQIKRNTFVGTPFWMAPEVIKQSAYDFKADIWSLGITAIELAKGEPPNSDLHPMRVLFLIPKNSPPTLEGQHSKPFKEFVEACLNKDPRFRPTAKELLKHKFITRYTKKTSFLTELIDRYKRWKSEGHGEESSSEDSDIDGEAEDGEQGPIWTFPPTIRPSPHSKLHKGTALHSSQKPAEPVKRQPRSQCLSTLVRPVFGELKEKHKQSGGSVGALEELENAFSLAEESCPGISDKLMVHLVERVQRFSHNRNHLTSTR

| SMILES | Activity [1] | Activity [2] | Activity [3] | Activity [4] | Activity [5] | Activity [6] | Activity [7] | Activity [8] | Activity [9] | Activity [10] | Activity [11] | Activity [12] | Activity [13] | Activity [14] | Activity [15] | Activity [16] | Activity [17] | Activity [18] | Activity [19] | Activity [20] | further results |
| --- | --- | --- | --- | --- | --- | --- | --- | --- | --- | --- | --- | --- | --- | --- | --- | --- | --- | --- | --- | --- | --- |
| COc1ccc(-c2cc3c(N[C@@H]4CC[C@](C)(N)C4(C)C)c(C(N)=O)cnn3c2)cn1 | 34% | 100% | 100% | 100% | 35% | 100% | 74% | 100% | 78% | 100% | 62% | 100% | 88% | 100% | 95% | 100% | 90% | 100% | 87% | 86% | Activity [21]: 82%; Activity [22]: 93%; Activity [23]: 9%; Activity [24]: 90%; Activity [25]: 92% |
| CC1(C)[C@H](Nc2c(C(N)=O)cnn3cc(-c4ccccc4)cc23)CC[C@]1(C)N | 5% | 100% | 100% | 100% | 19% | 67% | 58% | 100% | 100% | 87% | 80% | 100% | 100% | 100% | 98% | 65% | 90% | 100% | 100% | 66% | Activity [21]: 100%; Activity [22]: 66%; Activity [23]: 1.4%; Activity [24]: 100%; Activity [25]: 100% |
